Laboratory results as given in PubChem BioAssay AID1963850 (Molecular Pharmacology Branch, DTP, NCI, 2024).
pIC50: −log10 of the molar value.

Tested on: 192522-019-R-J2-PDC complex tumor spheroid viability
Assay: Anticancer human tumor 192522-019-R-J2-PDC patient-derived colon adenocarcinoma cell line growth inhibition [POLQ]
Details: for pIC50: curve of first compound; for viability, T/C: stronger effect = lower value
Experimental: Multicellular complex tumor spheroid response to Polymerase (POL) inhibitors (novobiocin, ART-558, RP6685) in combination with a variety of drugs and investigational agents in selected tumor cell lines
The POL inhibitors (novobiocin, ART-558, and RP6685) were evaluated both individually and in combination with standard of care and investigational anticancer small molecules within a complex spheroid model of solid tumors. . Complex spheroids include a stromal component modeled by human endothelial cells (HUVEC) and fibroblasts modeled by human mesenchymal stem cells (MSCs). The concentration ranges selected for each drug and investigational agent were based upon clinically achievable concentrations if the clinical Cmax of the agent was known.
Compounds. The drugs and investigational agents: novobiocin (NSC847541), ART-558 (NSC835418), RP-6685 (NSC848927), peposertib (NSC802822), ceralasertib (NSC780249), elimusertib (NSC800525), camonsertib (NSC841442), AZD-1390 (NSC803789), olaparib (NSC753686), talazoparib (NSC767125), rucaparib (NSC756644), sotorasib (NSC818433), MRTX-1133 (NSC836407), SN-38 (NSC673596), topotecan (NSC609699), epotoside (NSC141540), doxorubicin (NSC123127), gemcitabine (NSC613327), 5-fluorouracil (NSC19893), paclitaxel (NSC125973), vemurafenib (NSC761431), MSA-2 (NSC828583), SN-011 (NSC837082), adavosertib (NSC754352), prexasertib (NSC758257), carboplatin (NSC241240) and oxaliplatin (NSC266046), were obtained from the National Cancer Institute (NCI) Developmental Therapeutics Program Chemical Repository (21). The FDA-approved anticancer drug set is available from the Developmental Therapeutics Program at https://dtp.cancer.gov/organization/dscb/obtaining/. […] The stock solutions were prepared in dimethyl sulfoxide (DMSO, Sigma-Aldrich, St. Louis, MO, cat. D2650), except for the platinum compounds which were prepared in saline (Quality Biological, Gaithersburg, MD, cat. 114-055-101), at 800-fold the tested concentration and stored at -70 degrees C prior to their use. All drugs and investigational agents were tested over a range starting from a high concentration at or near the clinical Cmax and decreasing in half-log increments. If the clinical Cmax for an agent had not been determined, the highest concentration tested was 10 microM, except for SN-38, which was tested at a high concentration of 1 microM.
Cell Culture. All cells were maintained in an incubator at 37 degrees C and 5% CO2 with 95% humidity. The PDC lines were cultured according to standard operating procedures established by the NCI PDMR (https://pdmr.cancer.gov). Table 3 of the manuscript, lists the cell lines along with the number of the three cell types plated to form the mct-spheroids and media for tumor cell growth. After thawing, all PDC lines, except 997537-175-T-J1-PDC and 415267-285-R-J2-PDC, were cultured in Matrigel-coated flasks prepared with a working solution of 1X Ham's F-12 nutrient mix, without supplementation (Thermo Fisher Scientific, cat. 11765054), 100 U/mL penicillin-streptomycin (Thermo Fisher Scientific, cat. 15140122), and 2.5% Matrigel (Corning Inc., Corning, NY, cat. 354248) for the first three passages. The two PDC lines 997537-175-T-J1-PDC and 415267-285-R-J2-PDC were cultured on uncoated flasks. The 857933-349-R-J2-PDC line was cultured in 6C/Colon 1B media containing advanced DMEM/F-12 (Thermo Fisher Scientific, cat. 12634028), 10 mM HEPES (Thermo Fisher Scientific, cat. 15630080), 1X GlutaMAX supplement (Thermo Fisher Scientific, cat. 35050061), 0.1 mg/mL primocin (InvivoGen, San Diego, CA, cat. ant-pm-2), 10% defined fetal bovine serum, heat inactivated (HyClone Laboratories Inc., Logan, UT, cat. SH30070.03HI), 50% L-WRN conditioned media (ATCC, cat. CRL-3276), 1.25 mM N-Acetyl-L-cysteine (Sigma-Aldrich, cat. A9165), 10 mM nicotinamide (Sigma-Aldrich, cat. N0636), 1X B-27 supplement (Thermo Fisher Scientific, cat. 17504044), 1X N-2 supplement (Thermo Fisher Scientific, cat. […]

[1] = second compound 0.0316 µM, first compound 0.00316 µM
[2] = second compound 0.0316 µM, first compound 0.01 µM
[3] = second compound 0.0316 µM, first compound 0.0316 µM
[4] = second compound 0.0316 µM, first compound 0.1 µM
[5] = second compound 0.1 µM, first compound 0.00316 µM
[6] = second compound 0.1 µM, first compound 0.01 µM
[7] = second compound 0.1 µM, first compound 0.0316 µM
[8] = second compound 0.1 µM, first compound 0.1 µM
[9] = second compound 0.316 µM, first compound 0.00316 µM
[10] = second compound 0.316 µM, first compound 0.01 µM
[11] = second compound 0.316 µM, first compound 0.0316 µM
[12] = second compound 0.316 µM, first compound 0.1 µM
[13] = second compound 1 µM, first compound 0.00316 µM
[14] = second compound 1 µM, first compound 0.01 µM
[15] = second compound 1 µM, first compound 0.0316 µM
[16] = second compound 1 µM, first compound 0.1 µM
[17] = second compound 3.16 µM, first compound 0.00316 µM
[18] = second compound 3.16 µM, first compound 0.01 µM
[19] = second compound 3.16 µM, first compound 0.0316 µM
[20] = second compound 3.16 µM, first compound 0.1 µM
[21] = second compound 10 µM, first compound 0.00316 µM
[22] = second compound 10 µM, first compound 0.01 µM
[23] = second compound 10 µM, first compound 0.0316 µM
[24] = second compound 10 µM, first compound 0.1 µM
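Further: spheroids exposed to drugs for seven days before reading.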
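Wherever viability, T/C is given: 100% = DMSO vehicle control viability in luminescence.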

SMILES: CC[C@@]1(O)C(=O)OCc2c1cc1n(c2=O)Cc2cc3c(CN(C)C)c(O)ccc3nc2-1 + COC1C(OC(N)=O)C(O)C(Oc2ccc3c(O)c(NC(=O)c4ccc(O)c(CC=C(C)C)c4)c(=O)oc3c2C)OC1(C)C
- pIC50 (second compound 0.0316 µM): < 7.00
- pIC50 (second compound 0.1 µM): < 7.00
- pIC50 (second compound 0.316 µM): < 7.00
- pIC50 (second compound 1 µM): < 7.00
- pIC50 (second compound 3.16 µM): < 7.00
- pIC50 (second compound 10 µM): < 7.00
- viability, T/C (second compound 0.0316 µM, first compound 0.000316 µM): 113%
- viability, T/C (second compound 0.0316 µM, first compound 0.001 µM): 95.6%
- viability, T/C [1]: 101%
- viability, T/C [2]: 96.6%
- viability, T/C [3]: 87.5%
- viability, T/C [4]: 52.1%
- viability, T/C (second compound 0.1 µM, first compound 0.000316 µM): 98.4%
- viability, T/C (second compound 0.1 µM, first compound 0.001 µM): 103%
- viability, T/C [5]: 102%
- viability, T/C [6]: 96%
- viability, T/C [7]: 90.4%
- viability, T/C [8]: 56.1%
- viability, T/C (second compound 0.316 µM, first compound 0.000316 µM): 105%
- viability, T/C (second compound 0.316 µM, first compound 0.001 µM): 106%
- viability, T/C [9]: 102%
- viability, T/C [10]: 99.6%
- viability, T/C [11]: 87.6%
- viability, T/C [12]: 58.1%
- viability, T/C (second compound 1 µM, first compound 0.000316 µM): 103%
- viability, T/C (second compound 1 µM, first compound 0.001 µM): 99.6%
- viability, T/C [13]: 105%
- viability, T/C [14]: 102%
- viability, T/C [15]: 84.8%
- viability, T/C [16]: 53.9%
- viability, T/C (second compound 3.16 µM, first compound 0.000316 µM): 102%
- viability, T/C (second compound 3.16 µM, first compound 0.001 µM): 99.1%
- viability, T/C [17]: 99.8%
- viability, T/C [18]: 109%
- viability, T/C [19]: 92.3%
- viability, T/C [20]: 55.5%
- viability, T/C (second compound 10 µM, first compound 0.000316 µM): 108%
- viability, T/C (second compound 10 µM, first compound 0.001 µM): 103%
- viability, T/C [21]: 98.5%
- viability, T/C [22]: 103%
- viability, T/C [23]: 84.8%
- viability, T/C [24]: 57.6%

SMILES: CCc1c2c(nc3ccc(O)cc13)-c1cc3c(c(=O)n1C2)COC(=O)[C@]3(O)CC + COC1C(OC(N)=O)C(O)C(Oc2ccc3c(O)c(NC(=O)c4ccc(O)c(CC=C(C)C)c4)c(=O)oc3c2C)OC1(C)C
- pIC50 (second compound 0.0316 µM): 7.60
- pIC50 (second compound 0.1 µM): 7.29
- pIC50 (second compound 0.316 µM): 7.38
- pIC50 (second compound 1 µM): 7.47
- pIC50 (second compound 3.16 µM): 7.37
- pIC50 (second compound 10 µM): 7.36
- viability, T/C [1]: 96.3%
- viability, T/C [2]: 52.5%
- viability, T/C [3]: 52.3%
- viability, T/C [4]: 47%
- viability, T/C (second compound 0.0316 µM, first compound 0.316 µM): 35.1%
- viability, T/C (second compound 0.0316 µM, first compound 1 µM): 23.8%
- viability, T/C [5]: 84%
- viability, T/C [6]: 59%
- viability, T/C [7]: 55.8%
- viability, T/C [8]: 49.7%
- viability, T/C (second compound 0.1 µM, first compound 0.316 µM): 31.7%
- viability, T/C (second compound 0.1 µM, first compound 1 µM): 27.5%
- viability, T/C [9]: 83.7%
- viability, T/C [10]: 56%
- viability, T/C [11]: 53.7%
- viability, T/C [12]: 47.5%
- viability, T/C (second compound 0.316 µM, first compound 0.316 µM): 31.4%
- viability, T/C (second compound 0.316 µM, first compound 1 µM): 25.8%
- viability, T/C [13]: 82%
- viability, T/C [14]: 52.3%
- viability, T/C [15]: 57.9%
- viability, T/C [16]: 43.3%
- viability, T/C (second compound 1 µM, first compound 0.316 µM): 30.1%
- viability, T/C (second compound 1 µM, first compound 1 µM): 27.9%
- viability, T/C [17]: 86.7%
- viability, T/C [18]: 57.3%
- viability, T/C [19]: 57.9%
- viability, T/C [20]: 40.3%
- viability, T/C (second compound 3.16 µM, first compound 0.316 µM): 35.9%
- viability, T/C (second compound 3.16 µM, first compound 1 µM): 23.8%
- viability, T/C [21]: 83.3%
- viability, T/C [22]: 54.6%
- viability, T/C [23]: 59.4%
- viability, T/C [24]: 41.9%
- viability, T/C (second compound 10 µM, first compound 0.316 µM): 35.5%
- viability, T/C (second compound 10 µM, first compound 1 µM): 27.8%
